pIC50: −log10 of the molar value. Like-named read-outs stand apart in the source and are kept apart here.
Key:
Assay type in all cases: cell-based
[1] = test system: M-HeLa cells (human cervix epithelioid carcinoma); assay: MTT cytotoxicity test, M-HeLa; conditions: Homo sapiens, M-HeLa; MTT test; 24 h incubation per text, 48 h per method
From the text: (§1) For the experiments, we used tumor cell cultures M-HeLa clone 11 (epithelioid carcinoma of the cervix, subline HeLa., clone M-HeLa), HuTu 80 (human duodenal adenocarcinoma) and MCF7 (human breast adenocarcinoma (pleural fluid)) from the collection of the Institute of Cytology, Russian Academy of Sciences (St. Petersburg); human liver cells (Chang liver) from the collection of the Research Institute of Virology at the Russian Academy of Medical Sciences (Moscow); and SH-SY5Y (neuroblastoma)from the Laboratory of Tumor Cell Genetics at the Scientific Research Institute of Carcinogenesis N.N. Blokhin National Medical Research Center of Oncology.
(§2) The cytotoxic effect on cells was determined using the colorimetric method of cell proliferation—the MTT test. NADP-H-dependent cellular oxidoreductase enzymes can, under certain conditions, reflect the number of viable cells. These enzymes are able to reduce the tetrazolium dye (MTT)-3-(4,5-dimethylthiazol-2-yl)-2,5-diphenyl-tetrazolium bromide to insoluble blue-violet formazan, which crystallizes inside the cell. The amount of formazan formed is proportional to the number of cells with active metabolism.
(§3) Cells were seeded on a 96-well Nunc plate at a concentration of 5 × 10^3 cells per well in a volume of 100 μL of medium and cultured in a CO2 incubator at 37 °C until a monolayer was formed. […] After 48 h, the nutrient medium was removed from the plates and 100 µL of the nutrient medium without serum with MTT at a concentration of 0.5 mg/mL was added and incubated for 4 h at 37 °C. Formazan crystals were […] 100 µL of DMSO in each well. Optical density was recorded at 540 nm on an in vitro logic microplate reader (Russia). The experiments for all compounds were repeated in triplicate.
(§4) IC50 values were estimated using the Quest Graph IC50 Calculator (AAT Bioquest, Inc., Sunnyvale, CA, USA) (Version 2022) (accessed on 25 June 2022).

[2] = test system: MCF-7 cells (human breast adenocarcinoma); assay: MTT cytotoxicity test, MCF-7; conditions: Homo sapiens, MCF7, MTT test; 24 h incubation per text, 48 h per method
Protocol: as §2
Formazan crystals were added to 100 µL of DMSO in each well. Optical density was recorded at 540 nm on an in vitro logic microplate reader (Russia). The experiments for all compounds were repeated in triplicate.

[3] = test system: HuTu 80 cells (human duodenal adenocarcinoma); assay: MTT cytotoxicity test, HuTu 80; conditions: Homo sapiens
From the text: as §1, §2, §3, §4

[4] = test system: SH-SY5Y cells (neuroblastoma); assay: MTT cytotoxicity test, SH-SY5Y; conditions: Homo sapiens, SH-SY5Y; MTT test; 24 h incubation per text, 48 h per method
From the text: as §1, §2, §3, §4

[5] = HuTu80, read-out: IC50, HuTu 80
[6] = HuTu80, MTT test, 24 h incubation per text, 48 h per method, read-out: IC50, HuTu 80

Measured: pIC50

COP(=O)(OC)C(c1cc(C(C)(C)C)c(O)c(C(C)(C)C)c1)c1ccc(NC(=O)Nc2ccccc2)nc1NC(=O)Nc1ccccc1 (centres unmarked) [5a]
< 4.15: [1] | [2] | [3]; [5] | [4]

CC(C)OP(=O)(OC(C)C)C(c1cc(C(C)(C)C)c(O)c(C(C)(C)C)c1)c1ccc(NC(=O)Nc2ccccc2)nc1NC(=O)Nc1ccccc1 (centres unmarked) [5c]
< 4.15: [1] | [2] | [3]; [6] | [4]

CC(C)(C)c1cc(C(c2ccc(NC(=O)Nc3ccccc3)nc2NC(=O)Nc2ccccc2)P(=O)(Oc2ccccc2)Oc2ccccc2)cc(C(C)(C)C)c1O (centres unmarked) [5d]
< 4.15: [1] | [2] | [3]; [5] | [4]

COP(=O)(OC)C(c1cc(C(C)(C)C)c(O)c(C(C)(C)C)c1)c1ccc(NC(=O)Nc2ccccc2)cc1NC(=O)Nc1ccccc1 (centres unmarked) [6a]
< 4.15: [1] | [2] | [3]; [5] | [4]

CCOP(=O)(OCC)C(c1cc(C(C)(C)C)c(O)c(C(C)(C)C)c1)c1ccc(NC(=O)Nc2ccccc2)cc1NC(=O)Nc1ccccc1 (centres unmarked) [6b]
< 4.15: [1] | [2] | [3]; [5] | [4]

CC(C)(C)c1cc(C(c2ccc(NC(=O)Nc3ccccc3)cc2NC(=O)Nc2ccccc2)P(=O)(Oc2ccccc2)Oc2ccccc2)cc(C(C)(C)C)c1O (centres unmarked) [6d]
< 4.15: [1] | [2] | [3]; [5] | [4]

COP(=O)(OC)C(c1cc(C(C)(C)C)c(O)c(C(C)(C)C)c1)c1ccc(NC(=O)Nc2cccc(C)c2)nc1NC(=O)Nc1cccc(C)c1 (centres unmarked) [8a]
< 4.15: [1] | [2] | [3]; [5] | [4]

Cc1cccc(NC(=O)Nc2ccc(C(c3cc(C(C)(C)C)c(O)c(C(C)(C)C)c3)P(=O)(OC(C)C)OC(C)C)c(NC(=O)Nc3cccc(C)c3)n2)c1 (centres unmarked) [8c]
< 4.15: [1] | [2] | [3]; [6] | [4]

Cc1cccc(NC(=O)Nc2ccc(C(c3cc(C(C)(C)C)c(O)c(C(C)(C)C)c3)P(=O)(Oc3ccccc3)Oc3ccccc3)c(NC(=O)Nc3cccc(C)c3)n2)c1 (centres unmarked) [8d]
< 4.15: [1] | [2] | [3]; [5] | [4]

COP(=O)(OC)C(c1cc(C(C)(C)C)c(O)c(C(C)(C)C)c1)c1ccc(NC(=O)Nc2ccc(C)cc2)nc1NC(=O)Nc1ccc(C)cc1 (centres unmarked) [9a]
< 4.15: [1] | [2] | [3]; [5] | [4]

CCOP(=O)(OCC)C(c1cc(C(C)(C)C)c(O)c(C(C)(C)C)c1)c1ccc(NC(=O)Nc2ccc(C)cc2)nc1NC(=O)Nc1ccc(C)cc1 (centres unmarked) [9b]
< 4.15: [1] | [2] | [3]; [5] | [4]

Cc1ccc(NC(=O)Nc2ccc(C(c3cc(C(C)(C)C)c(O)c(C(C)(C)C)c3)P(=O)(OC(C)C)OC(C)C)c(NC(=O)Nc3ccc(C)cc3)n2)cc1 (centres unmarked) [9c]
< 4.15: [1] | [2] | [3]; [6] | [4]

COc1ccc(NC(=O)Nc2ccc(C(c3cc(C(C)(C)C)c(O)c(C(C)(C)C)c3)P(=O)(OC)OC)c(NC(=O)Nc3ccc(OC)cc3)n2)cc1 (centres unmarked) [10a]
< 4.15: [1] | [2] | [3]; [5] | [4]

COc1ccc(NC(=O)Nc2ccc(C(c3cc(C(C)(C)C)c(O)c(C(C)(C)C)c3)P(=O)(OC(C)C)OC(C)C)c(NC(=O)Nc3ccc(OC)cc3)n2)cc1 (centres unmarked) [10c]
< 4.15: [1] | [2] | [3]; [6] | [4]

COc1ccc(NC(=O)Nc2ccc(C(c3cc(C(C)(C)C)c(O)c(C(C)(C)C)c3)P(=O)(Oc3ccccc3)Oc3ccccc3)c(NC(=O)Nc3ccc(OC)cc3)n2)cc1 (centres unmarked) [10d]
< 4.15: [1] | [2] | [3]; [5] | [4]

CC(C)OP(=O)(OC(C)C)C(c1cc(C(C)(C)C)c(O)c(C(C)(C)C)c1)c1ccc(NC(=O)Nc2ccc(Cl)cc2)nc1NC(=O)Nc1ccc(Cl)cc1 (centres unmarked) [11c]
< 4.15: [1] | [2] | [3]; [6] | [4]

CC(C)(C)c1cc(C(c2ccc(NC(=O)Nc3ccc(Cl)cc3)nc2NC(=O)Nc2ccc(Cl)cc2)P(=O)(Oc2ccccc2)Oc2ccccc2)cc(C(C)(C)C)c1O (centres unmarked) [11d]
< 4.15: [1] | [2] | [3]; [5] | [4]

CC(C)OP(=O)(OC(C)C)C(c1cc(C(C)(C)C)c(O)c(C(C)(C)C)c1)c1ccc(NC(=O)Nc2ccc([N+](=O)[O-])cc2)nc1NC(=O)Nc1ccc([N+](=O)[O-])cc1 (centres unmarked) [12c]
< 4.15: [1] | [2] | [3]; [5] | [4]

CC(C)(C)c1cc(C(c2ccc(NC(=O)Nc3ccc([N+](=O)[O-])cc3)nc2NC(=O)Nc2ccc([N+](=O)[O-])cc2)P(=O)(Oc2ccccc2)Oc2ccccc2)cc(C(C)(C)C)c1O (centres unmarked) [12d]
< 4.15: [1] | [2] | [3]; [5] | [4]

Cc1cccc(NC(=O)Nc2ccc(C(c3cc(C(C)(C)C)c(O)c(C(C)(C)C)c3)P(=O)(Oc3ccccc3)Oc3ccccc3)c(NC(=O)Nc3cccc(C)c3)c2)c1 (centres unmarked) [13d]
< 4.15: [1] | [2] | [3]; [5] | [4]

COP(=O)(OC)C(c1cc(C(C)(C)C)c(O)c(C(C)(C)C)c1)c1ccc(NC(=O)Nc2ccc(C)cc2)cc1NC(=O)Nc1ccc(C)cc1 (centres unmarked) [14a]
< 4.15: [1] | [2] | [3]; [5] | [4]

Cc1ccc(NC(=O)Nc2ccc(C(c3cc(C(C)(C)C)c(O)c(C(C)(C)C)c3)P(=O)(Oc3ccccc3)Oc3ccccc3)c(NC(=O)Nc3ccc(C)cc3)c2)cc1 (centres unmarked) [14d]
< 4.15: [1] | [2] | [3]; [5] | [4]

COc1ccc(NC(=O)Nc2ccc(C(c3cc(C(C)(C)C)c(O)c(C(C)(C)C)c3)P(=O)(OC)OC)c(NC(=O)Nc3ccc(OC)cc3)c2)cc1 (centres unmarked) [15a]
< 4.15: [1] | [2] | [3]; [5] | [4]

COc1ccc(NC(=O)Nc2ccc(C(c3cc(C(C)(C)C)c(O)c(C(C)(C)C)c3)P(=O)(Oc3ccccc3)Oc3ccccc3)c(NC(=O)Nc3ccc(OC)cc3)c2)cc1 (centres unmarked) [15d]
< 4.15: [1] | [2] | [3]; [5] | [4]

COP(=O)(OC)C(c1cc(C(C)(C)C)c(O)c(C(C)(C)C)c1)c1ccc(NC(=O)Nc2ccc(Cl)cc2)cc1NC(=O)Nc1ccc(Cl)cc1 (centres unmarked) [16a]
< 4.15: [1] | [2] | [3]; [5] | [4]

CC(C)(C)c1cc(C(c2ccc(NC(=O)Nc3ccc(Cl)cc3)cc2NC(=O)Nc2ccc(Cl)cc2)P(=O)(Oc2ccccc2)Oc2ccccc2)cc(C(C)(C)C)c1O (centres unmarked) [16d]
< 4.15: [1] | [2] | [3]; [5] | [4]

CC(C)(C)c1cc(C(c2ccc(NC(=O)Nc3ccc([N+](=O)[O-])cc3)cc2NC(=O)Nc2ccc([N+](=O)[O-])cc2)P(=O)(Oc2ccccc2)Oc2ccccc2)cc(C(C)(C)C)c1O (centres unmarked) [17d]
< 4.15: [1] | [2] | [3]; [5] | [4]

COP(=O)(OC)C(c1cc(C(C)(C)C)c(O)c(C(C)(C)C)c1)c1ccc(NC(=S)Nc2ccccc2)nc1N (centres unmarked) [18a]
< 4.15: [1] | [2] | [3]; [5] | [4]

CCOP(=O)(OCC)C(c1cc(C(C)(C)C)c(O)c(C(C)(C)C)c1)c1ccc(NC(=S)Nc2ccccc2)nc1N (centres unmarked) [18b]
< 4.15: [1] | [2] | [3]; [5] | [4]

CC(C)(C)c1cc(C(c2ccc(NC(=S)Nc3ccccc3)nc2N)P(=O)(Oc2ccccc2)Oc2ccccc2)cc(C(C)(C)C)c1O (centres unmarked) [18d]
< 4.15: [1] | [2] | [3]; [5] | [4]

CCOP(=O)(OCC)C(c1cc(C(C)(C)C)c(O)c(C(C)(C)C)c1)c1ccc(NC(=S)Nc2ccccc2)cc1NC(=S)Nc1ccccc1 (centres unmarked) [19b]
< 4.15: [1] | [2] | [3]; [5] | [4]

CC(C)(C)c1cc(C(c2ccc(NC(=S)Nc3ccccc3)cc2NC(=S)Nc2ccccc2)P(=O)(Oc2ccccc2)Oc2ccccc2)cc(C(C)(C)C)c1O (centres unmarked) [19d]
< 4.15: [1] | [2] | [3]; [5] | [4]
